The series is described as follows: Relative bioavailability in fasted male Sprague Dawley rats, oral solid dose 100 mg/kg (Example 2). The format is in vivo. To be noted: male Sprague Dawley rat, oral solid dose 100 mg/kg.

Description: The relative bioavailability of the PVP based composition of Example 1 was compared to the crystalline form in male Sprague Dawley rat in a parallel study design. An oral, solid dose of 100 mg/kg was administered to the rats in the fasted state.

With `CCCCC(=O)N(Cc1ccc(-c2ccccc2-c2nnn[nH]2)cc1)[C@H](C(=O)O)C(C)C` [Valsartan, N-(1-oxopentyl)-N-[[2′-(1H-tetrazol-5-yl) [biphenyl]-4-yl]methyl]-L-valine], the “AUC0-24h (area under the drug plasma concentration vs. time profile)” value amounted to 40000 ng·h/mL.

For the origin of these results see patent publication US20080152717A1 (ISP INVESTMENTS, INC., priority 2006, published 2008).
